Data on ten compounds can be found in patent publication US20230129438A1, “IMMUNOMODULATING IMINE-OXAZOLINE AZALIDES” (Zoetis Services LLC, priority 2020, published 2023).

Marks after values point to notes of the source that are not given here.

For one data set, the system named is TNF-α. Description: Bovine whole blood assay, LPS-induced TNF-α. The class given is cell-based. The note with it: LPS 1 μg/mL. Here is the method:
(§1) (protected from light) for 30 minutes.

In a further data set the test system is IL-1β. Description: Bovine whole blood assay, IL-1β. The class given is cell-based. The following applies: drug concentration giving overstimulation of IL-1β over LPS (cellular toxicity signal). Here is the method:
as §1

Data set [1] has as its system BRD pathogens, M. haemolytica and P. multocida. Nature of the data set: In-vitro MIC model, BRD pathogen screening panel. The note with it: asterisk = at least one BRD bacterial isolate. The class given is cell-based.
A further data set relates to P. multocida 46572. Nature of the data set: In vivo mouse lung infection challenge model (murine efficacy model). The note with it: for % Survival: 20 mg/kg subcutaneous, CD-1 mice, intranasal challenge, to Day 10, approximate (~%), harmonized relative to vehicle and M9.

By IC50 is commonly meant the midpoint of a concentration-inhibition curve. For the compound `CCNC[C@]1(O)[C@H](C)O[C@@H](O[C@H]2[C@H](C)[C@@H](O[C@@H]3O[C@H](C)C[C@H]4[C@H]3OC(=Nc3ccccc3)N4C)[C@](C)(O)C[C@@H](C)CN[C@H](C)[C@@H](O)[C@](C)(O)[C@@H](CC)OC(=O)[C@@H]2C)C[C@@]1(C)OC` (mixture of isomers) [Example A-3, (E/Z)-(2R,3S,4R,5R,8R,10R,11R,12S,13S,14R)-11-(((3aR,4S,6R,7aS)-1,6-dimethyl-2-(phenylimino)hexahydro-2H-pyrano[4,3-d]oxazol-4-yl)oxy)-2-ethyl-13-(((2R,4R,5S,6S)-5-((ethylamino)methyl)-5-hydroxy-4-methoxy-4,6-dimethyltetrahydro-2H-pyran-2-yl)oxy)-3,4,10-trihydroxy-3,5,8,10,12,14-hexamethyl-1-oxa-6-azacyclopentadecan-15-one], the IC50 in the data set with TNF-α was 20 µM. Moreover, in the data set on IL-1β, the “IL-Iβ OS of LPS” value amounted to 5 µM.

`CCCNC[C@]1(O)[C@H](C)O[C@@H](O[C@H]2[C@H](C)[C@@H](O[C@@H]3O[C@H](C)C[C@H]4[C@H]3OC(=Nc3ccc(OC)cc3)N4C)[C@](C)(O)C[C@@H](C)CN(C)[C@H](C)[C@@H](O)[C@](C)(O)[C@@H](CC)OC(=O)[C@@H]2C)C[C@@]1(C)OC` (mixture of isomers) [Example A-30, (E/Z)-(2R,3S,4R,5R,8R,10R,11R,12S,13S,14R)-2-ethyl-3,4,10-trihydroxy-13-(((2R,4R,5S,6S)-5-hydroxy-4-methoxy-4,6-dimethyl-5-((propylamino)methyl)tetrahydro-2H-pyran-2-yl)oxy)-11-(((3aR,4S,6R,7aS)-2-((4-methoxyphenyl)imino)-1,6-dimethylhexahydro-2H-pyrano[4,3-d]oxazol-4-yl)oxy)-3,5,6,8,10,12,14-heptamethyl-1-oxa-6-azacyclopentadecan-15-one] had an IC50 in the data set with TNF-α of 10 µM. Also, the “IL-Iβ OS of LPS” value in the data set on IL-1β turned out to be 16 µM.

On to `CC[C@H]1OC(=O)[C@H](C)[C@@H](O[C@H]2C[C@@](C)(OC)[C@@H](O)[C@H](C)O2)[C@H](C)[C@@H](O[C@@H]2O[C@H](C)C[C@H]3[C@H]2OC(=Nc2ccccc2)N3C)[C@](C)(O)C[C@@H](C)CN[C@H](C)[C@@H](O)[C@]1(C)O` (mixture of isomers) [Example C-4, (E/Z)-(2R,3S,4R,5R,8R,10R,11R,12S,13S,14R)-11-(((3aR,4S,6R,7aS)-1,6-dimethyl-2-(phenylimino)hexahydro-2H-pyrano[4,3-d]oxazol-4-yl)oxy)-2-ethyl-3,4,10-trihydroxy-13-(((2R,4R,5S,6S)-5-hydroxy-4-methoxy-4,6-dimethyltetrahydro-2H-pyran-2-yl)oxy)-3,5,8,10,12,14-hexamethyl-1-oxa-6-azacyclopentadecan-15-one], for which the “MIC flag on Ex# (Table C)” value in data set [1] is given as “C-4* (MIC ≤ 64 μg/mL for at least one BRD bacterial isolate)”.

As for `CC[C@H]1OC(=O)[C@H](C)[C@@H](O[C@H]2C[C@@](C)(OC)[C@](O)(CN3CCN(CC)CC3)[C@H](C)O2)[C@H](C)[C@@H](O[C@@H]2O[C@H](C)C[C@H]3[C@H]2OC(=Nc2ccccc2)N3C)[C@](C)(O)C[C@@H](C)CN[C@H](C)[C@@H](O)[C@]1(C)O` (mixture of isomers) [Example B-2, (E/Z)-(2R,3S,4R,5R,8R,10R,11R,12S,13S,14R)-11-(((3aR,4S,6R,7aS)-1,6-dimethyl-2-(phenylimino)hexahydro-2H-pyrano[4,3-d]oxazol-4-yl)oxy)-2-ethyl-13-(((2R,4R,5S,6S)-5-((4-ethylpiperazin-1-yl)methyl)-5-hydroxy-4-methoxy-4,6-dimethyltetrahydro-2H-pyran-2-yl)oxy)-3,4,10-trihydroxy-3,5,8,10,12,14-hexamethyl-1-oxa-6-azacyclopentadecan-15-one], in the data set on TNF-α, inhibition was half-maximal at 6 µM (IC50). Besides, the “IL-Iβ OS of LPS” value with IL-1β is 13 µM.

In the case of `CC[C@H]1OC(=O)[C@H](C)[C@@H](O[C@H]2C[C@@](C)(OC)[C@](O)(CN3CCN(C)CC3)[C@H](C)O2)[C@H](C)[C@@H](O[C@@H]2O[C@H](C)C[C@H]3[C@H]2OC(=Nc2ccccc2)N3C)[C@](C)(O)C[C@@H](C)CN[C@H](C)[C@@H](O)[C@]1(C)O` (mixture of isomers) [Example B-1, (E/Z)-(2R,3S,4R,5R,8R,10R,11R,12S,13S,14R)-11-(((3aR,4S,6R,7aS)-1,6-dimethyl-2-(phenylimino)hexahydro-2H-pyrano[4,3-d]oxazol-4-yl)oxy)-2-ethyl-3,4,10-trihydroxy-13-(((2R,4R,5S,6S)-5-hydroxy-4-methoxy-4,6-dimethyl-5-((4-methylpiperazin-1-yl)methyl)tetrahydro-2H-pyran-2-yl)oxy)-3,5,8,10,12,14-hexamethyl-1-oxa-6-azacyclopentadecan-15-one], 8 µM corresponded to half-maximal inhibition with TNF-α (IC50). Further, the “IL-Iβ OS of LPS” value in the data set on IL-1β was determined as 13 µM. Besides, the “% Survival” value with P. multocida 46572 amounted to 43%.

On to `CC[C@H]1OC(=O)[C@H](C)[C@@H](O[C@H]2C[C@@](C)(OC)[C@@H](O)[C@H](C)O2)[C@H](C)[C@@H](O[C@@H]2O[C@H](C)C[C@H]3[C@H]2OC(=Nc2ccc(OC)cc2)N3C)[C@](C)(O)C[C@@H](C)CN[C@H](C)[C@@H](O)[C@]1(C)O` (mixture of isomers) [Example C-3, (E/Z)-(2R,3S,4R,5R,8R,10R,11R,12S,13S,14R)-2-ethyl-3,4,10-trihydroxy-13-(((2R,4R,5S,6S)-5-hydroxy-4-methoxy-4,6-dimethyltetrahydro-2H-pyran-2-yl)oxy)-11-(((3aR,4S,6R,7aS)-2-((4-methoxyphenyl)imino)-1,6-dimethylhexahydro-2H-pyrano[4,3-d]oxazol-4-yl)oxy)-3,5,8,10,12,14-hexamethyl-1-oxa-6-azacyclopentadecan-15-one], for which the “MIC flag on Ex# (Table C)” value in data set [1] is reported as “C-3* (MIC ≤ 64 μg/mL for at least one BRD bacterial isolate)”.

Compound `CC[C@H]1OC(=O)[C@H](C)[C@@H](O[C@H]2C[C@@](C)(OC)[C@](O)(CN3CCOCC3)[C@H](C)O2)[C@H](C)[C@@H](O[C@@H]2O[C@H](C)C[C@H]3[C@H]2OC(=Nc2ccc(OC)cc2)N3C)[C@](C)(O)C[C@@H](C)CN[C@H](C)[C@@H](O)[C@]1(C)O` (mixture of isomers) [Example B-4, (E/Z)-(2R,3S,4R,5R,8R,10R,11R,12S,13S,14R)-2-ethyl-3,4,10-trihydroxy-13-(((2R,4R,5S,6S)-5-hydroxy-4-methoxy-4,6-dimethyl-5-(morpholinomethyl)tetrahydro-2H-pyran-2-yl)oxy)-11-(((3aR,4S,6R,7aS)-2-((4-methoxyphenyl)imino)-1,6-dimethylhexahydro-2H-pyrano[4,3-d]oxazol-4-yl)oxy)-3,5,8,10,12,14-hexamethyl-1-oxa-6-azacyclopentadecan-15-one] yielded an IC50 in the data set with TNF-α of less than 5 µM. Also, the “IL-Iβ OS of LPS” value with IL-1β was 13 µM. Besides, the “% Survival” value with P. multocida 46572 was 37%. Also, the “clinical efficacy, in words” value in the data set with P. multocida 46572 (P. multocida infection in mice) is “clinically efficacious”.

Turning to `CCCNC[C@]1(O)[C@H](C)O[C@@H](O[C@H]2[C@H](C)[C@@H](O[C@@H]3O[C@H](C)C[C@H]4[C@H]3OC(=Nc3ccccc3)N4C)[C@](C)(O)C[C@@H](C)CN[C@H](C)[C@@H](O)[C@](C)(O)[C@@H](CC)OC(=O)[C@@H]2C)C[C@@]1(C)OC` (mixture of isomers) [Example A-6, (E/Z)-(2R,3S,4R,5R,8R,10R,11R,12S,13S,14R)-11-(((3aR,4S,6R,7aS)-1,6-dimethyl-2-(phenylimino)hexahydro-2H-pyrano[4,3-d]oxazol-4-yl)oxy)-2-ethyl-3,4,10-trihydroxy-13-(((2R,4R,5S,6S)-5-hydroxy-4-methoxy-4,6-dimethyl-5-((propylamino)methyl)tetrahydro-2H-pyran-2-yl)oxy)-3,5,8,10,12,14-hexamethyl-1-oxa-6-azacyclopentadecan-15-one], the IC50 in the data set on TNF-α is less than 5 µM. For the same compound, in the data set on IL-1β, the “IL-Iβ OS of LPS” value was 13 µM. Also, in the data set with P. multocida 46572, the “% Survival” value was determined as 54%.

`CCCNC[C@]1(O)[C@H](C)O[C@@H](O[C@H]2[C@H](C)[C@@H](O[C@@H]3O[C@H](C)C[C@H]4[C@H]3OC(=Nc3ccccc3)N4C)[C@](C)(O)C[C@@H](C)CN(CCC)[C@H](C)[C@@H](O)[C@](C)(O)[C@@H](CC)OC(=O)[C@@H]2C)C[C@@]1(C)OC` (mixture of isomers) [Example A-34, (E/Z)-(2R,3S,4R,5R,8R,10R,11R,12S,13S,14R)-11-(((3aR,4S,6R,7aS)-1,6-dimethyl-2-(phenylimino)hexahydro-2H-pyrano[4,3-d]oxazol-4-yl)oxy)-2-ethyl-3,4,10-trihydroxy-13-(((2R,4R,5S,6S)-5-hydroxy-4-methoxy-4,6-dimethyl-5-((propylamino)methyl)tetrahydro-2H-pyran-2-yl)oxy)-3,5,8,10,12,14-hexamethyl-6-propyl-1-oxa-6-azacyclopentadecan-15-one] showed an IC50 with TNF-α of 7 µM. In addition, the “IL-Iβ OS of LPS” value in the data set with IL-1β came to 6 µM.

The compound `CCNC[C@]1(O)[C@H](C)O[C@@H](O[C@H]2[C@H](C)[C@@H](O[C@@H]3O[C@H](C)C[C@H]4[C@H]3OC(=Nc3ccc(OC)cc3)N4C)[C@](C)(O)C[C@@H](C)CN[C@H](C)[C@@H](O)[C@](C)(O)[C@@H](CC)OC(=O)[C@@H]2C)C[C@@]1(C)OC` (mixture of isomers) [Example A-12, (E/Z)-(2R,3S,4R,5R,8R,10R,11R,12S,13S,14R)-2-ethyl-13-(((2R,4R,5S,6S)-5-((ethylamino)methyl)-5-hydroxy-4-methoxy-4,6-dimethyltetrahydro-2H-pyran-2-yl)oxy)-3,4,10-trihydroxy-11-(((3aR,4S,6R,7aS)-2-((4-methoxyphenyl)imino)-1,6-dimethylhexahydro-2H-pyrano[4,3-d]oxazol-4-yl)oxy)-3,5,8,10,12,14-hexamethyl-1-oxa-6-azacyclopentadecan-15-one] registered an IC50 in the data set on TNF-α of 15 µM. Further, the “IL-Iβ OS of LPS” value in the data set with IL-1β stood at 32 µM.
